According to US8168238B2, “Extracts of Aquilaria hulls and use thereof in the treatment of cancer” (priority 2009, dated 2012):
Values after ≈ are worked out from the molar mass of the structure shown.

Key:
[1] = Partition coefficient between layers of a two-phase solvent system (HPLC peak area); format: physicochemical; details: Hexane-EtOAc—MeOH—H2O 12.24.16.9, from peak areas of lower and upper layer
HT29 cells [2] = test: MTT cell viability assay in HT29 cells; format: cell-based, human; details: for concentrations that greatly reduced cell viability in HT29 cells: 24 hours, MTT, Table 9; for IC50: Homo sapiens, HT-29, 24 h, read-out: IC50 on HT29 cells
Method: HT cells were treated with the diluted cucrubitacin E and I (100-1.56 μg/ml). After the cells were treated for 24 hours, cell viability was determined by MTT assay, which quantitatively measures the metabolic activity of living cells.
The effects of the extract of Aquilaria agallocha Roxb. hulls on cell toxicity in T24 cells (human bladder carcinoma cells), HT29 cells (human colon adenocarcinoma cells), HeLa cells (cervical carcinoma cells), AGS cells (gastric epithelial cancer cells) and Hep G2 lo cells (human hepatocellular liver carcinoma cells) were tested. The above-mentioned cells were treated with the extract of Aquilaria agallocha Roxb. hulls. The procedures of the cell toxicity test were the same as those mentioned in Example 5.

P-388 leukemia cells = test: MTT assay in P-388 leukemia cells; format: cell-based; details: for IC50: Mus musculus, P388, P-388 cells; for concentrations that inhibited cell proliferation in P-388 cells: Table 9
Method: HT cells were treated with the diluted cucrubitacin E and I (100-1.56 μg/ml). After the cells were treated for 24 hours, cell viability was determined by MTT assay, which quantitatively measures the metabolic activity of living cells. […] Please see Table 9.
In addition to HT29 cells, P-388 leukemia cells were also determined by MTT assay. […] Please see Table 9.

HT29 cells [3] = test: Cell morphology of HT29 cells, Giemsa staining, optical microscope; format: cell-based, human; details: different concentrations, 24 hours, 10% Giemsa, FIG. 4
HT29 cells [4] = test: Cell cycle distribution of HT29 cells by flow cytometry; format: cell-based, human; details: increasing concentrations, FIG. 5
From the text: The cell cycle of treated cells was examined by flow cytometry.

[5] = From the text: Sephadex LH-20 gel (1.5 cm i.d.×36 cm) was used in the molecular sieve chromatography and methanol was used as the mobile phase.

With `CC(C)(O)/C=C/C(=O)[C@](C)(O)C1[C@H](O)C[C@@]2(C)C3CC=C4C(C=C(O[C@@H]5OC(CO)[C@@H](O)C(O)C5O)C(=O)C4(C)C)[C@]3(C)C(=O)C[C@]12C` (some centres unmarked) [cucurbitacin I glucoside] the partition coefficient [1] was 0.03.

For `CC(C)(O)/C=C/C(=O)[C@](C)(O)C1[C@H](O)C[C@@]2(C)C3CC=C4C(C=C(O)C(=O)C4(C)C)[C@]3(C)C(=O)C[C@]12C` (some centres unmarked) [Cucurbitacin I, cucurbitacin I], the “concentrations that greatly reduced cell viability in HT29 cells” value (HT29 cells [2]) was over 15.8 µM, the IC50 (HT29 cells [2]) was 15.8 µg/mL (≈ 30.7 µM) and the IC50 (P-388 leukemia cells) was 7.4 µg/mL (≈ 14.4 µM). For the same molecule, the “concentrations that inhibited cell proliferation in P-388 cells” value (P-388 leukemia cells) was over 7.4 µM, the “cell morphology of HT29 cells” value (HT29 cells [3]) was “the nucleus were squeezed and the chromatin was condensed” and the “cell cycle distribution, sub-G1 population” value (HT29 cells [4]) was “sub-G1 populations increased”. The partition coefficient [1] was 0.42.

With `O=c1c2cc(O)c(O)cc2oc2cc(O)c([C@@H]3O[C@H](CO)[C@@H](O)[C@H](O)[C@H]3O)c(O)c12` [mangiferin] the “solubility, in words” value [5] was “hard to dissolve in methanol”.

For `CC(=O)OC(C)(C)/C=C/C(=O)[C@](C)(O)C1[C@H](O)C[C@@]2(C)C3CC=C4C(C=C(O)C(=O)C4(C)C)[C@]3(C)C(=O)C[C@]12C` (some centres unmarked) [Cucurbitacin E, cucurbitacin E], the “concentrations that greatly reduced cell viability in HT29 cells” value (HT29 cells [2]) was “above 14.1 μM”, the IC50 (HT29 cells [2]) was 14.1 µg/mL (≈ 25.3 µM) and the IC50 (P-388 leukemia cells) was 6.5 µg/mL (≈ 11.7 µM). The “concentrations that inhibited cell proliferation in P-388 cells” value (P-388 leukemia cells) was “above 6.5 μM”, the “cell morphology of HT29 cells” value (HT29 cells [3]) was “the nucleus were squeezed and the chromatin was condensed” and the “cell cycle distribution, sub-G1 population” value (HT29 cells [4]) was “sub-G1 populations increased”. The partition coefficient [1] was 0.90.

`CC(=O)OC(C)(C)/C=C/C(=O)[C@](C)(O)C1[C@H](O)C[C@@]2(C)C3CC=C4C(C=C(O[C@@H]5OC(CO)[C@@H](O)C(O)C5O)C(=O)C4(C)C)[C@]3(C)C(=O)C[C@]12C` (some centres unmarked) [cucurbitacin E glucoside] gave a partition coefficient [1] of 0.05.
